The values below come from ChEMBL document CHEMBL5209589, “Membrane potential based transport assay for SLC1A3 using HEK293 JumpIn SLC1A3 OE cells” (2022).

The test concerns the target Excitatory amino acid transporter 1 (Homo sapiens, UniProt P43003). Briefly: Substrate uptake by the Excitatory Amino Acid Transporter 1 (EAAT1, SLC1A3) as assessed by the fluorescent FLIPR membrane potential dye in HEK-293 JumpIN-SLC1A3 cells (PubChem AID: 1745864). The format is functional, cell-based, HEK293.

Chain of Excitatory amino acid transporter 1 (P43003 whole entry): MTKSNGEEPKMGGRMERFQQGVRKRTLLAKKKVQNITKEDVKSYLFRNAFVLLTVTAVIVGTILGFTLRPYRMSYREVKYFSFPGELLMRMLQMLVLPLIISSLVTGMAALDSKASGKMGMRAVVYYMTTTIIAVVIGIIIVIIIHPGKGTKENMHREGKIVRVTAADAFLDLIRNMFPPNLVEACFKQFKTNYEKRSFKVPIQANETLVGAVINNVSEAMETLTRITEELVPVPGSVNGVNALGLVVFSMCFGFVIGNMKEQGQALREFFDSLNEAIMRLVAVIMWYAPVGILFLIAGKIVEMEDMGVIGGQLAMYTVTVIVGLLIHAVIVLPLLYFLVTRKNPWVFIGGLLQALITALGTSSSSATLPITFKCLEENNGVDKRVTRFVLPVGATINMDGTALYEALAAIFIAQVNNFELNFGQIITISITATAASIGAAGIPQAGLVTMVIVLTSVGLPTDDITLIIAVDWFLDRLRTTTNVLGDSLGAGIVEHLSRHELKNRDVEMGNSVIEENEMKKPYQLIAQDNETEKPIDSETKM

The molecule `N[C@@H](CS)C(=O)O` [CYSTEINE] yielded an EC50 of 376 µM.

`N[C@@H](CCC(=O)O)C(=O)O` [GLUTAMIC ACID] had a half-maximal effective concentration (EC50) of 16 µM.
